Assay results: ChEMBL document CHEMBL1201862, “PubChem BioAssay data set” (2004)
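Five compound concentrations were applied to cells in 96-well plates for 48 hours; endpoints were derived by simple linear interpolation of the resulting dose-response curve. The concentration for 50% growth inhibition is given as GI50.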 Active and inactive are the calls of the source. No stated cut-off is given here; in the data, active = GI50 up to about 1.1 µM and inactive = higher.

Tests used:
Assay in all cases: DTP human tumour cell line panel, 48 h
IGROV-1 = test system: IGROV-1
SN12C = test system: SN12C
OVCAR-8 = test system: OVCAR-8
COLO 205 = test system: COLO 205
EKVX = test system: EKVX
LOX IMVI = test system: LOX IMVI
CAKI-1 = test system: CAKI-1
BT-549 = test system: BT-549
HCT-15 = test system: HCT-15
NCI-H23 = test system: NCI-H23
SNB-19 = test system: SNB-19
NCI-H522 = test system: NCI-H522
A549 = test system: A549
HCT-116 = test system: HCT-116
SW-620 = test system: SW-620
T47D = test system: T47D
A498 = test system: A498
HOP-62 = test system: HOP-62
SR = test system: SR

Row | SMILES | GI50 (IGROV-1) | GI50 (SN12C) | GI50 (OVCAR-8) | GI50 (COLO 205) | GI50 (EKVX) | GI50 (LOX IMVI) | GI50 (CAKI-1) | GI50 (BT-549) | GI50 (HCT-15) [µM] | GI50 (NCI-H23) | GI50 (SNB-19) | GI50 (NCI-H522) | GI50 (A549) | GI50 (HCT-116) | GI50 (SW-620) | GI50 (T47D) | GI50 (A498) | GI50 (HOP-62) | GI50 (SR)
1 | O=c1[nH]nc(Cc2ccccc2)n1CCO | > 100 µM (inactive) | > 100 µM (inactive) | > 100 µM (inactive) | > 100 µM (inactive) | > 100 µM (inactive) | > 100 µM (inactive) | > 100 µM (inactive) | > 100 µM (inactive) | > 100 | > 100 µM (inactive) | > 100 µM (inactive) | > 100 µM (inactive) | > 100 µM (inactive) | > 100 µM (inactive) | > 100 µM (inactive) | > 100 µM (inactive) | > 100 µM (inactive) | – | –
2 | Cc1cc2c(cc1Cl)Sc1n[nH]c(=O)n1S2(=O)=O | > 100 µM (inactive) | > 100 µM (inactive) | > 100 µM (inactive) | > 100 µM (inactive) | > 100 µM (inactive) | > 100 µM (inactive) | > 100 µM (inactive) | > 100 µM (inactive) | > 100 | > 100 µM (inactive) | > 100 µM (inactive) | 87.5 µM (inactive) | > 100 µM (inactive) | > 100 µM (inactive) | > 100 µM (inactive) | – | 19.4 µM (inactive) | > 100 µM (inactive) | –
3 | COc1cc(OC)nc(Nc2c(C#N)c3nc4ccccc4n3c3ccccc23)n1 | 21.8 µM (inactive) | – | 34.9 µM (inactive) | > 100 µM (inactive) | 72.3 µM (inactive) | 21.4 µM (inactive) | 29.1 µM (inactive) | 15.8 µM (inactive) | > 100 | 32.1 µM (inactive) | 25.1 µM (inactive) | 19.2 µM (inactive) | > 100 µM (inactive) | 29.6 µM (inactive) | > 100 µM (inactive) | > 100 µM (inactive) | – | 16.6 µM (inactive) | –
4 | CC(=O)OCC(=O)OC[C@H](OCc1ccccc1)[C@@H]1[C@H](OC(C)=O)C(=O)N1Cc1ccccc1 | > 100 µM (inactive) | > 100 µM (inactive) | > 100 µM (inactive) | > 100 µM (inactive) | > 100 µM (inactive) | > 100 µM (inactive) | – | – | > 100 | > 100 µM (inactive) | > 100 µM (inactive) | – | > 100 µM (inactive) | > 100 µM (inactive) | > 100 µM (inactive) | – | > 100 µM (inactive) | > 100 µM (inactive) | > 100 µM (inactive)
5 | COc1ccc(NC(=S)Nc2c(C)n(C)n(-c3ccccc3)c2=O)cc1 | > 100 µM (inactive) | – | > 100 µM (inactive) | > 100 µM (inactive) | > 100 µM (inactive) | > 100 µM (inactive) | > 100 µM (inactive) | > 100 µM (inactive) | > 100 | > 100 µM (inactive) | > 100 µM (inactive) | > 100 µM (inactive) | > 100 µM (inactive) | > 100 µM (inactive) | > 100 µM (inactive) | – | > 100 µM (inactive) | > 100 µM (inactive) | –
6 | O=C1CC(c2cccc(Cl)c2)Oc2ccccc21 (centres undefined) | 15 µM (inactive) | – | 29.2 µM (inactive) | 23.7 µM (inactive) | 14.8 µM (inactive) | 20 µM (inactive) | 6.18 µM (inactive) | – | 15.9 | 10.2 µM (inactive) | 15.3 µM (inactive) | – | – | 15.9 µM (inactive) | 18.3 µM (inactive) | 12.7 µM (inactive) | 24.7 µM (inactive) | 17.1 µM (inactive) | –
7 | Cc1[nH]c(=O)nc(NCCNCCO)c1C(=O)Nc1c2ccccc2nc2ccccc12 | > 100 µM (inactive) | > 100 µM (inactive) | > 100 µM (inactive) | > 100 µM (inactive) | > 100 µM (inactive) | > 100 µM (inactive) | > 100 µM (inactive) | – | > 100 | > 100 µM (inactive) | > 100 µM (inactive) | > 100 µM (inactive) | > 100 µM (inactive) | > 100 µM (inactive) | > 100 µM (inactive) | > 100 µM (inactive) | > 100 µM (inactive) | > 100 µM (inactive) | –
8 | CC1(C)N=C(/C(C#N)=[N+](/[O-])C(=O)c2ccccc2)C(C)(C)N1O | > 100 µM (inactive) | > 100 µM (inactive) | > 100 µM (inactive) | > 100 µM (inactive) | > 100 µM (inactive) | > 100 µM (inactive) | > 100 µM (inactive) | – | > 100 | > 100 µM (inactive) | > 100 µM (inactive) | – | > 100 µM (inactive) | > 100 µM (inactive) | > 100 µM (inactive) | > 100 µM (inactive) | – | > 100 µM (inactive) | > 100 µM (inactive)
9 | Cc1ccc(SCC(CSCCO)OCn2cnc3c2N=C(N)NC32OCCO2)cc1 (centres undefined) | > 100 µM (inactive) | – | > 100 µM (inactive) | – | 83 µM (inactive) | > 100 µM (inactive) | > 100 µM (inactive) | – | > 100 | > 100 µM (inactive) | > 100 µM (inactive) | > 100 µM (inactive) | > 100 µM (inactive) | > 100 µM (inactive) | > 100 µM (inactive) | > 100 µM (inactive) | > 100 µM (inactive) | > 100 µM (inactive) | > 100 µM (inactive)
10 | CC(N)Cc1ccc(F)cc1 (centres undefined) | > 100 µM (inactive) | > 100 µM (inactive) | > 100 µM (inactive) | > 100 µM (inactive) | > 100 µM (inactive) | > 100 µM (inactive) | > 100 µM (inactive) | – | > 100 | > 100 µM (inactive) | > 100 µM (inactive) | > 100 µM (inactive) | > 100 µM (inactive) | > 100 µM (inactive) | > 100 µM (inactive) | – | > 100 µM (inactive) | > 100 µM (inactive) | > 100 µM (inactive)
11 | Fc1ccc(C(OCCN2CCC3CCC(C2)N3CCCc2ccccc2)c2ccc(F)cc2)cc1 (centres undefined) | 4.97 µM (inactive) | 3.57 µM (inactive) | 2.24 µM (inactive) | 1.37 µM (inactive) | 3.82 µM (inactive) | 3.83 µM (inactive) | 4.86 µM (inactive) | 8.89 µM (inactive) | 3.76 | 4.1 µM (inactive) | 10.1 µM (inactive) | 3.35 µM (inactive) | 6.15 µM (inactive) | 2.65 µM (inactive) | 3.64 µM (inactive) | 2.16 µM (inactive) | 3.02 µM (inactive) | 7.38 µM (inactive) | –
12 | N#CCCSC(=S)C1CCCC1=N (centres undefined) | > 100 µM (inactive) | > 100 µM (inactive) | > 100 µM (inactive) | > 100 µM (inactive) | > 100 µM (inactive) | – | > 100 µM (inactive) | > 100 µM (inactive) | > 100 | > 100 µM (inactive) | > 100 µM (inactive) | > 100 µM (inactive) | > 100 µM (inactive) | > 100 µM (inactive) | > 100 µM (inactive) | 36 µM (inactive) | > 100 µM (inactive) | > 100 µM (inactive) | –
13 | O=C(CSc1nc2ccc(I)cc2c(=O)n1Cc1ccccc1)NN1C(=O)CSC1c1ccccc1 (centres undefined) | 22.6 µM (inactive) | 23 µM (inactive) | 32.7 µM (inactive) | 15.3 µM (inactive) | 29.2 µM (inactive) | 19.5 µM (inactive) | 3.13 µM (inactive) | – | 14.1 | 18.3 µM (inactive) | 40.7 µM (inactive) | 15.6 µM (inactive) | 35.2 µM (inactive) | 24 µM (inactive) | 38 µM (inactive) | 28.1 µM (inactive) | – | 18.6 µM (inactive) | 26.5 µM (inactive)
14 | CC(C)(Br)C(=O)N1CCN(C(c2ccccc2)c2ccccc2)CC1 | > 100 µM (inactive) | 84.9 µM (inactive) | > 100 µM (inactive) | > 100 µM (inactive) | 40.6 µM (inactive) | > 100 µM (inactive) | 84.1 µM (inactive) | > 100 µM (inactive) | 64.9 | > 100 µM (inactive) | > 100 µM (inactive) | 85.7 µM (inactive) | > 100 µM (inactive) | 32.2 µM (inactive) | > 100 µM (inactive) | – | > 100 µM (inactive) | 43.5 µM (inactive) | 66.2 µM (inactive)
15 | Cc1ccc(S(=O)(=O)N/N=C2\CC3C4CCC3C2C4)cc1 (centres undefined) | > 100 µM (inactive) | > 100 µM (inactive) | > 100 µM (inactive) | > 100 µM (inactive) | > 100 µM (inactive) | > 100 µM (inactive) | > 100 µM (inactive) | – | > 100 | > 100 µM (inactive) | > 100 µM (inactive) | > 100 µM (inactive) | > 100 µM (inactive) | > 100 µM (inactive) | > 100 µM (inactive) | > 100 µM (inactive) | > 100 µM (inactive) | > 100 µM (inactive) | > 100 µM (inactive)
16 | CCOC(=O)N1CCN(Cc2cc(=O)n3cc(C)ccc3n2)CC1 | > 100 µM (inactive) | > 100 µM (inactive) | > 100 µM (inactive) | > 100 µM (inactive) | > 100 µM (inactive) | > 100 µM (inactive) | > 100 µM (inactive) | > 100 µM (inactive) | > 100 | > 100 µM (inactive) | > 100 µM (inactive) | > 100 µM (inactive) | > 100 µM (inactive) | > 100 µM (inactive) | > 100 µM (inactive) | – | – | > 100 µM (inactive) | > 100 µM (inactive)
17 | COP(=O)(CP(=O)(OC)OCCC(C)CCC=C(C)C)OC (centres undefined) | > 100 µM (inactive) | > 100 µM (inactive) | > 100 µM (inactive) | > 100 µM (inactive) | > 100 µM (inactive) | > 100 µM (inactive) | > 100 µM (inactive) | > 100 µM (inactive) | > 100 | > 100 µM (inactive) | > 100 µM (inactive) | > 100 µM (inactive) | > 100 µM (inactive) | > 100 µM (inactive) | > 100 µM (inactive) | > 100 µM (inactive) | > 100 µM (inactive) | 69.7 µM (inactive) | –
